≈ marks a conversion by molar mass, not a printed value.
Columns and labels:
[1] = Inhibition of Escherichia coli recombinant gyrase A2B2 assessed as reduction of pHOT-1 supercoiling after 90 mins
Escherichia coli [2] = experiment: Antibacterial activity against tolC-deficient Escherichia coli JW5503-1 by broth microdilution method; format: functional
Pseudomonas aeruginosa [3] = experiment: Antibacterial activity against wild type Pseudomonas aeruginosa PAO1 by broth microdilution method; format: functional
Escherichia coli [4] = experiment: Antibacterial activity against wild type Escherichia coli BW5328/pAH69 by broth microdilution method; format: functional
Escherichia coli [5] = experiment: Antibacterial activity against wild type Escherichia coli ATCC 25922 by broth microdilution method; format: functional
Escherichia coli [6] = experiment: Antibacterial activity against wild type Escherichia coli MC4100 by broth microdilution method; format: functional
Escherichia coli [7] = experiment: Antibacterial activity against fluoroquinolone-resistant Escherichia coli CH10 harboring gyrA S83L D87N, parC S80I E84G, AcrA+ by broth microdilution method; format: functional
Staphylococcus aureus [8] = experiment: Antibacterial activity against fluoroquinolone-resistant Staphylococcus aureus NB01006-AVR005 harboring gyrA S84L, parC S80F, parE E471K by broth microdilution method; format: functional
Staphylococcus aureus [9] = experiment: Antibacterial activity against wild type methicillin-susceptible Staphylococcus aureus ATCC 49951 by broth microdilution method; format: functional
Staphylococcus aureus [10] = experiment: Antibacterial activity against wild type Staphylococcus aureus ATCC 29213 by broth microdilution method; format: functional
Escherichia coli [11] = experiment: Antibacterial activity against Escherichia coli imp-4213 by broth microdilution method; format: functional
Pseudomonas aeruginosa [12] = experiment: Antibacterial activity against mexX, mexB deficient Pseudomonas aeruginosa NB52023-CDK005 harboring gyrAT83I by broth microdilution method; format: functional
Pseudomonas aeruginosa [13] = experiment: Antibacterial activity against mexX, mexB deficient Pseudomonas aeruginosa NB52023-CDK006 harboring gyrAT83I and parC S87L by broth microdilution method; format: functional
Escherichia coli [14] = experiment: Antibacterial activity against tolC-deficient Escherichia coli NB27005-CDY0039 expressing gyrA S83L […], parC S80I mutant by broth microdilution method; format: functional
Pseudomonas aeruginosa [15] = experiment: Antibacterial activity against Pseudomonas aeruginosa K1542 deficient with mexX, mexB by broth microdilution method; format: functional

Compound | IC50 [1] [µM] | MIC (Escherichia coli [2]) [µg/mL] | MIC (Pseudomonas aeruginosa [3]) [µg/mL] | MIC (Escherichia coli [4]) [µg/mL] | MIC (Escherichia coli [5]) [µg/mL] | MIC (Escherichia coli [6]) [µg/mL] | MIC (Escherichia coli [7]) [µg/mL] | MIC (Staphylococcus aureus [8]) [µg/mL] | MIC (Staphylococcus aureus [9]) [µg/mL] | MIC (Staphylococcus aureus [10]) [µg/mL] | MIC (Escherichia coli [11]) [µg/mL] | MIC (Pseudomonas aeruginosa [12]) [µg/mL] | MIC (Pseudomonas aeruginosa [13]) [µg/mL] | MIC (Escherichia coli [14]) [µg/mL] | MIC (Pseudomonas aeruginosa [15]) [µg/mL]
CN(CC(=O)N1CCN(c2cc3c(cc2F)c(=O)c(C(=O)O)cn3C2CC2)CC1)CC(=O)N1CCN(c2cc3c(cc2F)c(=O)c(C(=O)O)cn3C2CC2)CC1 | 4.37 | 0.06 (≈ 0.0775 µM) | 2 (≈ 2.58 µM) | 0.25 (≈ 0.323 µM) | 0.25 (≈ 0.323 µM) | 0.25 (≈ 0.323 µM) | > 32 | > 32 | 2 (≈ 2.58 µM) | 4 (≈ 5.17 µM) | 0.06 (≈ 0.0775 µM) | 8 (≈ 10.3 µM) | 32 (≈ 41.4 µM) | 32 (≈ 41.4 µM) | 0.5 (≈ 0.646 µM)
O=C(CN1CCN(c2cc3c(cc2F)c(=O)c(C(=O)O)cn3C2CC2)CC1)NCCCN1CCN(CCCNC(=O)CN2CCN(c3cc4c(cc3F)c(=O)c(C(=O)O)cn4C3CC3)CC2)CC1 | 1.59 | 2 (≈ 2.12 µM) | > 32 | > 32 | > 32 | > 32 | > 32 | > 32 | 8 (≈ 8.48 µM) | 32 (≈ 33.9 µM) | 8 (≈ 8.48 µM) | > 32 | > 32 | > 32 | > 32
O=C(CN1CCN(c2cc3c(cc2F)c(=O)c(C(=O)O)cn3C2CC2)CC1)NCCOCCOCCNC(=O)CN1CCN(c2cc3c(cc2F)c(=O)c(C(=O)O)cn3C2CC2)CC1 | 1.04 | 4 (≈ 4.49 µM) | > 32 | 32 (≈ 35.9 µM) | 32 (≈ 35.9 µM) | 32 (≈ 35.9 µM) | > 32 | > 32 | > 32 | > 32 | 8 (≈ 8.98 µM) | > 32 | > 32 | > 32 | 32 (≈ 35.9 µM)
O=C(CCN1CCN(c2cc3c(cc2F)c(=O)c(C(=O)O)cn3C2CC2)CC1)NCCOCCNC(=O)CCN1CCN(c2cc3c(cc2F)c(=O)c(C(=O)O)cn3C2CC2)CC1 | 9.09 | 4 (≈ 4.57 µM) | > 32 | 32 (≈ 36.6 µM) | 32 (≈ 36.6 µM) | 32 (≈ 36.6 µM) | > 32 | > 32 | > 32 | > 32 | 8 (≈ 9.14 µM) | > 32 | > 32 | > 32 | > 32
O=C(CCN1CCN(c2cc3c(cc2F)c(=O)c(C(=O)O)cn3C2CC2)CC1)NCCOCCOCCNC(=O)CCN1CCN(c2cc3c(cc2F)c(=O)c(C(=O)O)cn3C2CC2)CC1 | 2.14 | 1 (≈ 1.09 µM) | > 32 | 8 (≈ 8.71 µM) | 8 (≈ 8.71 µM) | 8 (≈ 8.71 µM) | > 32 | > 32 | > 32 | > 32 | 4 (≈ 4.35 µM) | > 32 | > 32 | > 32 | > 32
O=C(O)c1cn(C2CC2)c2cc(N3CCN(CCOCCOCCN4CCN(c5cc6c(cc5F)c(=O)c(C(=O)O)cn6C5CC5)CC4)CC3)c(F)cc2c1=O | 28.2 | 0.25 (≈ 0.322 µM) | 32 (≈ 41.2 µM) | 2 (≈ 2.57 µM) | 2 (≈ 2.57 µM) | 2 (≈ 2.57 µM) | > 32 | > 32 | 16 (≈ 20.6 µM) | 16 (≈ 20.6 µM) | 0.5 (≈ 0.644 µM) | > 32 | > 32 | > 32 | 8 (≈ 10.3 µM)
O=C(O)c1cn(C2CC2)c2cc(N3CCN(CCOCCOCCOCCN4CCN(c5cc6c(cc5F)c(=O)c(C(=O)O)cn6C5CC5)CC4)CC3)c(F)cc2c1=O | 4.04 | 0.125 (≈ 0.152 µM) | 16 (≈ 19.5 µM) | 1 (≈ 1.22 µM) | 1 (≈ 1.22 µM) | 1 (≈ 1.22 µM) | > 32 | > 32 | 8 (≈ 9.75 µM) | 16 (≈ 19.5 µM) | 0.25 (≈ 0.305 µM) | 32 (≈ 39 µM) | > 32 | > 32 | 32 (≈ 39 µM)
O=C(O)c1cn(C2CC2)c2cc(N3CCN(C(=O)OCCOCCOCCOC(=O)N4CCN(c5cc6c(cc5F)c(=O)c(C(=O)O)cn6C5CC5)CC4)CC3)c(F)cc2c1=O | 7.25 | 0.125 (≈ 0.145 µM) | > 32 | 16 (≈ 18.5 µM) | 16 (≈ 18.5 µM) | 16 (≈ 18.5 µM) | > 32 | > 32 | 2 (≈ 2.31 µM) | 4 (≈ 4.63 µM) | 0.25 (≈ 0.289 µM) | > 32 | > 32 | 32 (≈ 37 µM) | 16 (≈ 18.5 µM)

Source: ChEMBL document CHEMBL3603745, “Synthesis of ciprofloxacin dimers for evaluation of bacterial permeability in atypical chemical space” (Bioorg Med Chem Lett, 2015)
